Among the data in doi:10.1101/2024.09.25.615046, “Identification of SLC45A4 as a pain gene encoding a neuronal polyamine transporter” (bioRxiv, 2024) are IC50 and thermal stability values, retold here.

Experiment [1] has as its target T1, SLC45A4 (HsSLC45A4) (Homo sapiens, UniProt Q5BKX6).
T1 sequence (Q5BKX6 1-768): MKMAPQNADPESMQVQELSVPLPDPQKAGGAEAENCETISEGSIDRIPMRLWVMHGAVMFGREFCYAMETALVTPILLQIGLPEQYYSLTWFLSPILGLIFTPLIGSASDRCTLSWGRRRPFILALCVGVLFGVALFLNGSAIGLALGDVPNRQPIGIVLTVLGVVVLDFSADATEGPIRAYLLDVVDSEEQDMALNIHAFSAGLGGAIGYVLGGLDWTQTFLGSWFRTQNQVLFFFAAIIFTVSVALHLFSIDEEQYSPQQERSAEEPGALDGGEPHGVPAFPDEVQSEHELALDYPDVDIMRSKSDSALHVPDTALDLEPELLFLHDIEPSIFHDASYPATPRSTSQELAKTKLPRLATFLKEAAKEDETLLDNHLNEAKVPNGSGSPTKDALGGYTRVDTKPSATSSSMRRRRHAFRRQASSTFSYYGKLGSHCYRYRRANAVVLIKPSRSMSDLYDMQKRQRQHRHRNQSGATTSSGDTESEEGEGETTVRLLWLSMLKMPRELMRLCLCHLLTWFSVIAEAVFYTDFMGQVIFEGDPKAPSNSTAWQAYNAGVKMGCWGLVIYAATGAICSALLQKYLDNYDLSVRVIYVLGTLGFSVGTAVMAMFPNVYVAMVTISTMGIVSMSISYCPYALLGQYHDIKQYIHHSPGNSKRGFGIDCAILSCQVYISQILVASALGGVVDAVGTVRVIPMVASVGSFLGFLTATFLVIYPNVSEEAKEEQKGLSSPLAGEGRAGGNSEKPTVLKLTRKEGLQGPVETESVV
Kind of experiment: competition of […]-spermidine uptake, Neuro-2A cells. In kind it is cell-based. The arrangement: full-length; uptake: C-terminal FLAG tag, pLexM, overexpressed in mouse Neuro-2A cells. Particulars: 1 uM 14C-spermidine, pH 7.5, 37 °C; unreliable unit: printed mM is probably µM (lost symbol font).

In experiment [2] the target is T1, SLC45A4 (HsSLC45A4). Briefly: nanoDSF thermal shift, purified protein. It counts as binding. Further details: full-length; uptake: C-terminal FLAG tag, pLexM, overexpressed in mouse Neuro-2A cells; nanoDSF: purified in DDM:CHS (eGFP-His tag removed by TEV). Particulars: 2.5-50 mM metabolite, DDM:CHS, 150 mM NaCl, 20 mM Tris or MES pH 7.5. Background: Differential scanning fluorimetry follows unfolding on heating by fluorescence.

SMILES strings stand for the structures.

`NCCCCN` [Put]: the IC50 on SLC45A4 (HsSLC45A4) [1] was 74 mM. That is a millimolar value.

Turning to `NCCCCNCCCN` [Spd], the thermal stability entry at SLC45A4 (HsSLC45A4) [2] was “polyamines Spm and Spd eliciting the largest response”. Turning to `NCCCCCN` [Cad], the IC50 on SLC45A4 (HsSLC45A4) [1] worked out at 67 mM. In other words, the millimolar range.

For `NCCCNCCCCNCCCN` [Spm], the thermal stability result at SLC45A4 (HsSLC45A4) [2] was “polyamines Spm and Spd eliciting the largest response”.

Broadly, the IC50 is the concentration that inhibits the measured activity by half. Read a high IC50 as lower potency.
